Assays:
5-HT3 receptor = 5-HT3 receptor binding test ([^3 H] quipazine, NG108-15 cell membrane fraction); set-up: species or system rat; details: 2 nM [^3 H] quipazine, 37° C., 60 minutes, pH 7.5; for Inhibition Rate (%) (concentration) 10^-7 M: 10^-7 M test compound; for Inhibition Rate (%) (concentration) 10^-8 M: 10^-8 M test compound
Protocol: 5-HT3 receptor binding test
Using rat neutroblastoma-glicoma NG108-15 cell membrane fraction, the binding activities of the test compounds to 5-HT3 receptor were examined.
A membrane fraction of NG108-15 cells was prepared according to the method of Neijt et al. [Naunyn-Schmiedeberg's Arch. Pharmacol., 337, 493 (1988)].
The receptor binding test was performed using [^3 H] quipazine [J. Neurochem., 52, 1787 (1989)], a high affinity ligand to 5-HT3 receptor.
A membrane fraction obtained from 4×10^5 NG108-15 cells was suspended in 1 ml of 20 mM Tris-hydrochloride buffer (pH 7.5) (hereinafterreferred to as Buffer) containing 154 mM sodium chloride. Then, 2 nM [^3 H] quipazine (2519.7 GBq/mmol; NEN CO.) and various concentrations of the test compound were added to the suspension followed by incubating at 37° C. for 60 minutes. 4 ml of ice-cold Buffer was added to terminate the reaction and then the mixture was filtered through GF/C glass fiber filter (Whatmann Co., Ltd.). The filter was washed 5 times with 2 ml of ice-cold Buffer, and put in a scintillation vial containing 8 ml of Scintisol EX-H (Wako Pure Chemicals, Inc.). Radioactivity on the filter was counted in a liquid scintillation counter (TRI-CARB 2200CA; Packard Co., Ltd.).
An inhibition of the [^3 H] quipazine binding by the test compound was estimated according to the equation; [formula]
"Total binding" is [^3 H] quipazine-binding in the absence of test compound and "non-specific binding" is [^3 H] quipazine-binding in the presence of 10 μM MDL7222 5-HT3 antagonist [Naunyn-Schmiedeberg's Arch. Pharmacol., 326, 36 (1984)].

dd-Y-strain male mice = test: Acute Toxicity (minimum lethal dose); type: in vivo; details: mortality for 7 days
Protocol: A test compound was intraperitoneally and orally administered to dd-Y-strain male mice weighing 20 to 25 g. The minimum lethal dose (MLD) was determined by observing the mortality for 7 days after the administration.

[1] = test system: Cisplatin-induced Vomiting; test: Activity Against Cisplatin-induced Vomiting; type: in vivo, Suncus murinus; details: 1.0 mg/kg i.p., 30 minutes before cisplatin 40 mg/kg i.p., n = 10
Protocol: Activity Against Cisplatin-induced Vomiting
In one group, 5 to 10 female and male Suncus murinus animals weighing 23 to 68 g were used. According to the method of Matsuki et al. [Japan J. Pharmacol., 48, 303 (1988)], each animal was put into a separate metal net cage (width 15 cm ×length 21 cm ×height 15 cm). One hour after, a test compound or physiological saline (control) was intraperitoneally (i.p.) administered in a dose of 10 μl/g of body weight. Further 30 minutes after administration of the test compound or physiological saline (control), 40 mg/kg of cisplatin was intraperitoneally administered. Taking no account of vomiting caused for 5 minytes after administration of cisplatin, a time period (latency) for the first vomiting and the number of frequencies (episodes) of vomiting caused for the period of 5 to 120 minutes after administration were determined. The latency and the number of frequencies in the test compound administered group were compared with those in the control group. The test of significance was performed by Student's t-test.

| SMILES | Inhibition Rate (%) (concentration) 10^-7 M (5-HT3 receptor) | Inhibition Rate (%) (concentration) 10^-8 M (5-HT3 receptor) | MLD (mg/kg) i.p. (dd-Y-strain male mice) | MLD (mg/kg) p.o. (dd-Y-strain male mice) | Number of Vomiting episodes (mean ± S.E.M.) ([1]; 5 to 120 minutes after cisplatin, control 29.2 ± 4.5 (n = 5)) | Latency (min.) (mean ± S.E.M.) ([1]; time to first vomiting, control 28.6 ± 6.3 (n = 5)) |
| --- | --- | --- | --- | --- | --- | --- |
| CCCCn1c(=O)c(C(=O)N[C@H]2C[C@H]3CC[C@@H](C2)N3C)c(O)c2ccsc21 [Compound 5, Endo-N-(8-methyl-8-azabicyclo[3.2.1]oct-3-yl)-7-(n-butyl)-6,7-dihydro-4-hydroxy-6-oxothieno[2,3-b]pyridine-5-carboxamide] | 105% | 100% | > 100 mg/kg | > 300 mg/kg |  |  |
| CCCCn1c(=O)c(C(=O)N[C@H]2C[C@H]3CC[C@@H](C2)N3C)c(O)c2sccc21 [Compound 3, Endo-N-(8-methyl-8-azabicyclo[3.2.1]oct-3-yl)-4-(n-butyl)-4,5-dihydro-7-hydroxy-5-oxothieno[3,2-b]pyridine-6-carboxamide] | 101% | 98% |  | > 200 mg/kg |  |  |
| CN1[C@@H]2CC[C@H]1C[C@@H](NC(=O)c1c(O)c3ccsc3[nH]c1=O)C2 [Compound 7, Endo-N-(8-methyl-8-azabicyclo[3.2.1]oct-3-yl)-6,7-dihydro-4-hydroxy-6-oxothieno[2,3-b]pyridine-5-carboxamide] | 71% | 23% |  |  |  |  |
| CCCCn1c(=O)c(C(=O)O[C@H]2C[C@H]3CC[C@@H](C2)N3C)c(O)c2sccc21 [Compound 4, Endo-8-methyl-8-azabicyclo[3.2.1]oct-3-yl 4-(n-butyl)-4,5-dihydro-7-hydroxy-5-oxothieno[3,2-b]pyridine-6-carboxylate] |  |  | > 50 mg/kg | > 100 mg/kg |  |  |
| CN1[C@@H]2CC[C@H]1C[C@@H](OC(=O)c1c(O)c3ccsc3[nH]c1=O)C2 [Compound 8, Endo-8-methyl-8-azabicyclo[3.2.1]oct-3-yl 6,7-dihydro-4-hydroxy-6-oxothieno[2,3-b]pyridine-5-carboxylate] |  |  | > 100 mg/kg | > 300 mg/kg |  |  |
| CCCCn1c(=O)c(C(=O)O[C@H]2C[C@H]3CC[C@@H](C2)N3C)c(O)c2ccsc21 [Compound 6, Endo-8-methyl-8-azabicyclo[3.2.1]oct-3-yl 7-(n-butyl)-6,7-dihydro-4-hydroxy-6-oxothieno[2,3-b]pyridine-5-carboxylate] |  |  | > 100 mg/kg | > 100 mg/kg |  |  |
| CN1[C@@H]2CCC[C@H]1C[C@@H](NC(=O)c1c(O)c3ccsc3[nH]c1=O)C2 [Compound 9, Endo-N-(9-methyl-9-azabicyclo[3.3.1]non-3-yl)-6,7-dihydro-4-hydroxy-6-oxothieno[2,3-b]pyridine-5-carboxamide] | 69% | 12% | > 50 mg/kg | > 300 mg/kg |  |  |
| CN1[C@@H]2CC[C@H]1C[C@@H](NC(=O)c1c(O)c3sccc3[nH]c1=O)C2 [Compound 1, Endo-N-(8-methyl-8-azabicyclo[3.2.1]oct-3-yl)-4,5-dihydro-7-hydroxy-5-oxothieno[3,2-b]pyridine-6-carboxamide] | 94% | 44% | > 100 mg/kg | > 300 mg/kg | 9.3 ± 2.2 | 66.0 ± 10.4 min |
